Assay results published in patent publication US20260132132A1, “3A,4,5,6-TETRAHYDRO-1 H-PYRAZOLO[3,4-C]PYRIDIN-7(7AH)-ONE DERIVATIVES AS FACTOR XIIA INHIBITORS” (KALVISTA PHARMACEUTICALS LIMITED, priority 2022, published 2026).
pIC50: −log10 of the molar value.

Molecular target: T1, Human Factor XIIa (hFXIIa) (Homo sapiens, UniProt P00748)
T1 construct: purchased Enzyme Research Laboratories
T1 sequence (P00748 373-615 limits assumed): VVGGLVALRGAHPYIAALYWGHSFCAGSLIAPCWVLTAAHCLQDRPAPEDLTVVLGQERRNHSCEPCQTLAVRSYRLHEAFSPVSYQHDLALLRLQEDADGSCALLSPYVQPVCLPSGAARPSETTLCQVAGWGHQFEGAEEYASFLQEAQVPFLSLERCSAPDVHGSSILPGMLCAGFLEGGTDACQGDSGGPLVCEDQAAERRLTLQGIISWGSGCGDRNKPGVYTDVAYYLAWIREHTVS
T1 sequence (P00748 20-372 partner limits assumed): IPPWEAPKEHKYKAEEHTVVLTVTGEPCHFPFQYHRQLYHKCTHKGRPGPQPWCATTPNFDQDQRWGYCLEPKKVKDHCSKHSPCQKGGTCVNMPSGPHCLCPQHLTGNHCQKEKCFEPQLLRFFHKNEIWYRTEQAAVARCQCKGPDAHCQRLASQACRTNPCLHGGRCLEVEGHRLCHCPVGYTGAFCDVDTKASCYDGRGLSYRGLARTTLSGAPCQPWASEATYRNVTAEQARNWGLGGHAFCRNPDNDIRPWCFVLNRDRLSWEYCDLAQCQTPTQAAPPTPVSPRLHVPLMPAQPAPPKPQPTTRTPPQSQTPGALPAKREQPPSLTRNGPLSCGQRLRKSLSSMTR
Assay: Determination of Human Factor XIIa (hFXIIa) inhibition, fluorogenic substrate IC50 assay
Format: biochemical
Conditions: fluorogenic substrate H-DPro-Phe-Arg-AFC at Km, 25° C., read-out: Human FXIIa IC50
Experimental: Determination of Human Factor XIIa (hFXIIa) inhibition
The Km for the cleavage of the substrate by hFXIIa was determined by standard transformation of the Michaelis-Menten equation, with subsequent inhibition assays performed at substrate Km concentration.

Row | Compound | pIC50
1 | C[C@@H](O)CN1CCc2ccc(N3CCc4c(C(=O)NCC5CC5)nn(-c5cccc(Cl)c5)c4C3=O)cc2C1 [Example 1101, (R)-1-(3-chlorophenyl)-N-(cyclopropylmethyl)-6-(2-(2-hydroxypropyl)-1,2,3,4-tetrahydroisoquinolin-7-yl)-7-oxo-4,5,6,7-tetrahydro-1H-pyrazolo[3,4-c]pyridine-3-carboxamide] | 6.00 to 6.52
2 | O=C(NCC1CC1)c1nn(-c2cccc(Cl)c2)c2c1CCN(c1ccc3c(c1)CN(CC1CCCC1)CC3)C2=O [Example 1102, 1-(3-chlorophenyl)-6-(2-(cyclopentylmethyl)-1,2,3,4-tetrahydroisoquinolin-7-yl)-N-(cyclopropylmethyl)-7-oxo-4,5,6,7-tetrahydro-1H-pyrazolo[3,4-c]pyridine-3-carboxamide] | 6.00 to 6.52
3 | O=C(NCC1CC1)c1nn(-c2cccc(Cl)c2)c2c1CCN(c1ccc3c(c1)CN(Cc1ccn[nH]1)CC3)C2=O [Example 1104, 6-(2-((1H-pyrazol-5-yl)methyl)-1,2,3,4-tetrahydroisoquinolin-7-yl)-1-(3-chlorophenyl)-N-(cyclopropylmethyl)-7-oxo-4,5,6,7-tetrahydro-1H-pyrazolo[3,4-c]pyridine-3-carboxamide] | 6.00 to 6.52
4 | C[C@@H](CO)N1CCc2ccc(N3CCc4c(C(=O)NCC5CC5)nn(-c5cccc(Cl)c5)c4C3=O)cc2C1 [Example 1113, (S)-1-(3-chlorophenyl)-N-(cyclopropylmethyl)-6-(2-(1-hydroxypropan-2-yl)-1,2,3,4-tetrahydroisoquinolin-7-yl)-7-oxo-4,5,6,7-tetrahydro-1H-pyrazolo[3,4-c]pyridine-3-carboxamide] | 6.00 to 6.52
5 | O=C(NCC1CC1)c1nn(-c2cccc(Cl)c2)c2c1CCN(c1ccc3c(c1)CN(C1CCOC1)CC3)C2=O (stereo not shown) [Example 1115, 1-(3-chlorophenyl)-N-(cyclopropylmethyl)-7-oxo-6-(2-(tetrahydrofuran-3-yl)-1,2,3,4-tetrahydroisoquinolin-7-yl)-4,5,6,7-tetrahydro-1H-pyrazolo[3,4-c]pyridine-3-carboxamide] | 6.00 to 6.52
6 | O=C(NCC1CC1)c1nn(-c2cccc(Cl)c2)c2c1CCN(c1ccc3c(c1)CN(CC1CCOC1)CC3)C2=O (stereo not shown) [Example 1116, 1-(3-chlorophenyl)-N-(cyclopropylmethyl)-7-oxo-6-(2-((tetrahydrofuran-3-yl)methyl)-1,2,3,4-tetrahydroisoquinolin-7-yl)-4,5,6,7-tetrahydro-1H-pyrazolo[3,4-c]pyridine-3-carboxamide] | 6.00 to 6.52
7 | O=C(NCC1CC1)c1nn(-c2cccc(Cl)c2)c2c1CCN(c1ccc3c(c1)CN(C1CCCC1O)CC3)C2=O (stereo not shown) [Example 1119, 1-(3-chlorophenyl)-N-(cyclopropylmethyl)-6-(2-(2-hydroxycyclopentyl)-1,2,3,4-tetrahydroisoquinolin-7-yl)-7-oxo-4,5,6,7-tetrahydro-1H-pyrazolo[3,4-c]pyridine-3-carboxamide] | 6.00 to 6.52
8 | O=C1CC[C@H](CN2CCc3ccc(N4CCc5c(C(=O)NCC6CC6)nn(-c6cccc(Cl)c6)c5C4=O)cc3C2)N1 [Example 1120, (R)-1-(3-chlorophenyl)-N-(cyclopropylmethyl)-7-oxo-6-(2-((5-oxopyrrolidin-2-yl)methyl)-1,2,3,4-tetrahydroisoquinolin-7-yl)-4,5,6,7-tetrahydro-1H-pyrazolo[3,4-c]pyridine-3-carboxamide] | 6.00 to 6.52
9 | O=C1CC[C@@H](CN2CCc3ccc(N4CCc5c(C(=O)NCC6CC6)nn(-c6cccc(Cl)c6)c5C4=O)cc3C2)N1 [Example 1124, (S)-1-(3-chlorophenyl)-N-(cyclopropylmethyl)-7-oxo-6-(2-((5-oxopyrrolidin-2-yl)methyl)-1,2,3,4-tetrahydroisoquinolin-7-yl)-4,5,6,7-tetrahydro-1H-pyrazolo[3,4-c]pyridine-3-carboxamide] | 6.00 to 6.52
10 | C[C@H](NC(=O)c1nn(-c2cccc(Cl)c2)c2c1CCN(c1ccc3c(c1)CN(CCO)CC3)C2=O)c1cccnc1 [Example 1131, (S)-1-(3-chlorophenyl)-6-(2-(2-hydroxyethyl)-1,2,3,4-tetrahydroisoquinolin-7-yl)-7-oxo-N-(1-(pyridin-3-yl)ethyl)-4,5,6,7-tetrahydro-1H-pyrazolo[3,4-c]pyridine-3-carboxamide] | 6.52 to 7.00
11 | Cn1cc(CNC(=O)c2nn(-c3cccc(Cl)c3)c3c2CCN(c2ccc4c(c2)CN(CCO)CC4)C3=O)cn1 [Example 1133, 1-(3-chlorophenyl)-6-(2-(2-hydroxyethyl)-1,2,3,4-tetrahydroisoquinolin-7-yl)-N-((1-methyl-1H-pyrazol-4-yl)methyl)-7-oxo-4,5,6,7-tetrahydro-1H-pyrazolo[3,4-c]pyridine-3-carboxamide] | 6.52 to 7.00
12 | CC1(C)OCCC1NC(=O)c1nn(-c2cccc(Cl)c2)c2c1CCN(c1cccc(CN3CCCCC3)c1)C2=O (stereo not shown) [Example 1164, 1-(3-chlorophenyl)-N-(2,2-dimethyltetrahydrofuran-3-yl)-7-oxo-6-(3-(piperidin-1-ylmethyl)phenyl)-4,5,6,7-tetrahydro-1H-pyrazolo[3,4-c]pyridine-3-carboxamide] | 6.00 to 6.52
13 | O=C(NCc1cnoc1)c1nn(-c2cccc(Cl)c2)c2c1CCN(c1ccc3c(c1)CN(CCO)CC3)C2=O [Example 1167, 1-(3-chlorophenyl)-6-(2-(2-hydroxyethyl)-1,2,3,4-tetrahydroisoquinolin-7-yl)-N-(isoxazol-4-ylmethyl)-7-oxo-4,5,6,7-tetrahydro-1H-pyrazolo[3,4-c]pyridine-3-carboxamide] | 6.52 to 7.00
14 | CCN1CCc2c(COC)cc(N3CCc4c(C(=O)NCC5CC5)nn(-c5cccc(Cl)c5)c4C3=O)cc2C1 [Example 1169, 1-(3-Chlorophenyl)-N-(cyclopropylmethyl)-6-(2-ethyl-5-(methoxymethyl)-1,2,3,4-tetrahydroisoquinolin-7-yl)-7-oxo-4,5,6,7-tetrahydro-1H-pyrazolo[3,4-c]pyridine-3-carboxamide] | 6.52 to 7.00

Other lines, results leading:

Row | pIC50 | Compound
15 | 6.52 to 7.00 | O=C(NCC1CC1)c1nn(-c2cccc(Cl)c2)c2c1CCN(c1ccc3c(c1)CN(C1CCC1)CC3)C2=O [Example 1103, 1-(3-chlorophenyl)-6-(2-cyclobutyl-1,2,3,4-tetrahydroisoquinolin-7-yl)-N-(cyclopropylmethyl)-7-oxo-4,5,6,7-tetrahydro-1H-pyrazolo[3,4-c]pyridine-3-carboxamide]
16 | 6.52 to 7.00 | O=C(NCc1ccoc1)c1nn(-c2cccc(Cl)c2)c2c1CCN(c1ccc3c(c1)CN(CCO)CC3)C2=O [Example 1105, 1-(3-chlorophenyl)-N-(furan-3-ylmethyl)-6-(2-(2-hydroxyethyl)-1,2,3,4-tetrahydroisoquinolin-7-yl)-7-oxo-4,5,6,7-tetrahydro-1H-pyrazolo[3,4-c]pyridine-3-carboxamide]
17 | 7.00 to 8.00 | O=C(NCc1ccccc1)c1nn(-c2cccc(Cl)c2)c2c1CCN(c1ccc3c(c1)CN(CCO)CC3)C2=O [Example 1107, N-benzyl-1-(3-chlorophenyl)-6-(2-(2-hydroxyethyl)-1,2,3,4-tetrahydroisoquinolin-7-yl)-7-oxo-4,5,6,7-tetrahydro-1H-pyrazolo[3,4-c]pyridine-3-carboxamide]
18 | 6.52 to 7.00 | O=C(N[C@@H]1CCOC1)c1nn(-c2cccc(Cl)c2)c2c1CCN(c1ccc3c(c1)CN(CCO)CC3)C2=O [Example 1108, (R)-1-(3-chlorophenyl)-6-(2-(2-hydroxyethyl)-1,2,3,4-tetrahydroisoquinolin-7-yl)-7-oxo-N-(tetrahydrofuran-3-yl)-4,5,6,7-tetrahydro-1H-pyrazolo[3,4-c]pyridine-3-carboxamide]
19 | 7.00 to 8.00 | Cc1cccnc1CNC(=O)c1nn(-c2cccc(Cl)c2)c2c1CCN(c1ccc3c(c1)CN(CCO)CC3)C2=O [Example 1136, 1-(3-chlorophenyl)-6-(2-(2-hydroxyethyl)-1,2,3,4-tetrahydroisoquinolin-7-yl)-N-((3-methylpyridin-2-yl)methyl)-7-oxo-4,5,6,7-tetrahydro-1H-pyrazolo[3,4-c]pyridine-3-carboxamide]
20 | 7.00 to 8.00 | Cc1cnccc1CNC(=O)c1nn(-c2cccc(Cl)c2)c2c1CCN(c1ccc3c(c1)CN(CCO)CC3)C2=O [Example 1163, 1-(3-chlorophenyl)-6-(2-(2-hydroxyethyl)-1,2,3,4-tetrahydroisoquinolin-7-yl)-N-((3-methylpyridin-4-yl)methyl)-7-oxo-4,5,6,7-tetrahydro-1H-pyrazolo[3,4-c]pyridine-3-carboxamide]
21 | 7.00 to 8.00 | Cc1cc(CNC(=O)c2nn(-c3cccc(Cl)c3)c3c2CCN(c2ccc4c(c2)CN(CCO)CC4)C3=O)nn1C [Example 1166, 1-(3-chlorophenyl)-N-((1,5-dimethyl-1H-pyrazol-3-yl)methyl)-6-(2-(2-hydroxyethyl)-1,2,3,4-tetrahydroisoquinolin-7-yl)-7-oxo-4,5,6,7-tetrahydro-1H-pyrazolo[3,4-c]pyridine-3-carboxamide]
22 | 7.00 to 8.00 | Cc1cc(CNC(=O)c2nn(-c3cccc(Cl)c3)c3c2CCN(c2cccc(CN4CCCCC4)c2)C3=O)[nH]n1 [Example 1168, 1-(3-chlorophenyl)-N-((3-methyl-1H-pyrazol-5-yl)methyl)-7-oxo-6-(3-(piperidin-1-ylmethyl)phenyl)-4,5,6,7-tetrahydro-1H-pyrazolo[3,4-c]pyridine-3-carboxamide]
